These results are taken from ChEMBL document CHEMBL1143143, “The influence of esters and carboxylic acids as the N-substituent of opioids. Part 1: Benzomorphans” (Bioorg Med Chem, 2008).

pEC50: −log10 of the molar value. The source made the active and inactive calls. The rule behind the calls is not given here.

One experiment deals with Mu-type opioid receptor (Mus musculus, UniProt P42866). The experiment can be described thus: Agonist activity at mu opioid receptor in Swiss mouse vas deferens assessed as inhibition of electrically-stimulated twitch. It counts as functional, tissue-based.
Experiment [1] concerns Mus musculus. In words: Antinociceptive activity in sc dosed mouse assessed as inhibition of morphin response by tail flick assay. It counts as functional. (In hot-plate and tail-flick tests a longer latency is read as antinociception.)
In experiment [2] the test system is Mus musculus. The experiment can be described thus: Antinociceptive activity in sc dosed mouse by phenylquinone antiwrithing assay. It counts as functional.
Experiment [3] concerns Mus musculus. In words: Antinociceptive activity in sc dosed mouse by hot plate method. Format: functional.
Experiment [4] concerns Mus musculus. The experiment can be described thus: Antinociceptive activity in sc dosed mouse by tail flick method. It counts as functional.
Experiment [5] in a line: Displacement of [3H]etorphine from opioid receptor in rat cerebrum. For orientation: Loss of bound radioactivity is the signal in a displacement assay; it reports binding, not function.
Experiment [6] is described as follows: Displacement of 3.0 nM [3H]etorphine from opioid receptor in rat cerebrum.

Mu-type opioid receptor, sequence (P42866 whole entry): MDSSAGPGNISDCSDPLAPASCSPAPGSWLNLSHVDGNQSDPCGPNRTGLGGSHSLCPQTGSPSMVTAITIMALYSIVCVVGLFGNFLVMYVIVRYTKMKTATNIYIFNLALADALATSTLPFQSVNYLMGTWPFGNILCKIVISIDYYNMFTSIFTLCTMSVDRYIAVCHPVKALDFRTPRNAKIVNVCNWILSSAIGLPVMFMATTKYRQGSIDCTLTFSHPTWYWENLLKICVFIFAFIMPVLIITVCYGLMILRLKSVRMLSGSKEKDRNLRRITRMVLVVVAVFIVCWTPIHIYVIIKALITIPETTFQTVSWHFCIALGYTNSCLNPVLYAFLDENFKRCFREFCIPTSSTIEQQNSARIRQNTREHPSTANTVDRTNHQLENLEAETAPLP

As to `CCOC(=O)CCCN1CC[C@]2(C)c3cc(O)ccc3CC1[C@@H]2C`, the pEC50 (commonly the negative decadic logarithm of the EC50, by convention in mol/L) is 4.75 on Mu-type opioid receptor and 5.99 in experiment [5]. Besides, the outcome with Mus musculus [1], in the experiment with Mus musculus [3] and in the experiment on Mus musculus [4] was inactive. For the same compound, the ED50 (usually the dose at which the effect has come halfway, by size or by number of responders) in the experiment with Mus musculus [2] was 7.1 mg/kg.

On to `C[C@H]1C2Cc3ccc(O)cc3[C@@]1(C)CCN2CC(=O)O`, for which the pEC50 at Mu-type opioid receptor is 5.01; in experiment [5], under 5.22. In addition, the result with Mus musculus [1], in the experiment with Mus musculus [2], in the experiment with Mus musculus [3] and with Mus musculus [4] was inactive.

As to `C=CCN1CC[C@]23c4c5ccc(O)c4O[C@H]2[C@@H](O)C=C[C@H]3[C@H]1C5` [NALORPHINE], the ED50 in the experiment with Mus musculus [1] stood at 2.6 mg/kg; in the experiment on Mus musculus [2], 0.6 mg/kg. In addition, the outcome with Mus musculus [4] was inactive. For the same compound, the pEC50 in experiment [5] is 7.70.

With `C[C@H]1C2Cc3ccc(O)cc3[C@@]1(C)CCN2CCC(=O)O`, the outcome in the experiment on Mus musculus [1], in the experiment with Mus musculus [3] and with Mus musculus [4] was inactive. Besides, in the experiment with Mus musculus [2], the 50% effect level (ED50) was put at a dose of 11.4 mg/kg. In addition, the pEC50 in experiment [5] is under 5.22.

Take `COc1ccc2c3c1O[C@H]1[C@@H](O)C=C[C@H]4[C@@H](C2)N(C)CC[C@@]341` [CODEINE]: the pEC50 in experiment [6] was 4.46.

Turning to `C[C@H]1C2Cc3ccc(O)cc3[C@@]1(C)CCN2CCCC(=O)O`, the outcome in the experiment with Mus musculus [1], in the experiment with Mus musculus [3] and in the experiment with Mus musculus [4] was inactive. The same compound gave an ED50 in the experiment on Mus musculus [2] of 1.4 mg/kg. Further, the pEC50 in experiment [5] was under 5.22.

Regarding `CN1CC[C@]23c4c5ccc(O)c4O[C@H]2[C@@H](O)C=C[C@H]3[C@H]1C5` [MORPHINE], in the experiment on Mus musculus [1], the ED50 came out at 2.6 mg/kg.

As for `O=C1CC[C@@]2(O)[C@H]3Cc4ccc(O)c5c4[C@@]2(CCN3CC2CC2)[C@H]1O5` [NALTREXONE], in the experiment on Mus musculus [1], the ED50 turned out to be 0.007 mg/kg. For the same compound, the outcome with Mus musculus [2], in the experiment on Mus musculus [3] and with Mus musculus [4] was inactive. The values for the pEC50 in experiment [6] and in experiment [5] were 8.70 and 9.20, respectively.

With `CCOC(=O)CN1CC[C@]2(C)c3cc(O)ccc3CC1[C@@H]2C`, the outcome with Mus musculus [1], in the experiment with Mus musculus [2], in the experiment with Mus musculus [3] and in the experiment with Mus musculus [4] was inactive. The same compound had a pEC50 in experiment [5] of 5.68.

For `CCOC(=O)CCN1CC[C@]2(C)c3cc(O)ccc3CC1[C@@H]2C`, the outcome in the experiment with Mus musculus [1], in the experiment on Mus musculus [2], in the experiment with Mus musculus [3] and in the experiment with Mus musculus [4] was inactive.

`C=CCN1CC[C@]23c4c5ccc(O)c4O[C@H]2C(=O)CC[C@@]3(O)[C@H]1C5` [NALOXONE]: in the experiment with Mus musculus [1], the ED50 was found to be 0.03 mg/kg. The outcome in the experiment with Mus musculus [2], in the experiment on Mus musculus [3] and with Mus musculus [4] was inactive. The pEC50 in experiment [6] is 8.04; in experiment [5], 8.20.

Consider `C[C@H]1[C@@H]2Cc3ccc(O)cc3[C@]1(C)CCN2C` [METAZOCINE], for which the result in the experiment on Mus musculus [1] was inactive. The ED50 worked out at 0.3 mg/kg with Mus musculus [2], 0.62 mg/kg in the experiment with Mus musculus [3] and 0.81 mg/kg with Mus musculus [4].
